Assay results: patent US20200345058A1, “Nicotine Oxalic Acid Formulations” (priority 2017, published 2020)

Conditions: 0.5% (w/w) nicotine or higher and 0.9% (w/w) tartaric acid or higher, ambient conditions
Excerpt: As used herein, weight percentage (w/w) refers to the weight of the individual component over the weight of the total formulation.

## CN1CCCC1c1cccnc1.O=C(O)C(O)C(O)C(=O)O (stereo not shown) [nicotine bitartrate]
  solubility in propylene glycol (PG), vegetable glycerin (VG) or any mixture (in words): will not produce a solution
